Results: paper PMC8496750, “Identification of the organic anion transporting polypeptides responsible for the hepatic uptake of the major metabolite of epyrifenacil, S‐3100‐CA, in mice” (Pharmacology Research & Perspectives, 2021)

Assays:
[1] = set-up: method as in PMID 34908893; conditions: rats; 90‐day; cited from earlier work
human OATP1B3 = target: T1, human OATP1B3 (Homo sapiens, UniProt Q9NPD5); assay: Inhibition of S‐3100‐CA uptake by OATP inhibitors, human OATP1B3; assay type: in vitro ADME; conditions: inhibitor at 100 μM
T1 construct: expressed in transfected cells; host or cells: 293FT cells
T1 sequence (Q9NPD5 1-702): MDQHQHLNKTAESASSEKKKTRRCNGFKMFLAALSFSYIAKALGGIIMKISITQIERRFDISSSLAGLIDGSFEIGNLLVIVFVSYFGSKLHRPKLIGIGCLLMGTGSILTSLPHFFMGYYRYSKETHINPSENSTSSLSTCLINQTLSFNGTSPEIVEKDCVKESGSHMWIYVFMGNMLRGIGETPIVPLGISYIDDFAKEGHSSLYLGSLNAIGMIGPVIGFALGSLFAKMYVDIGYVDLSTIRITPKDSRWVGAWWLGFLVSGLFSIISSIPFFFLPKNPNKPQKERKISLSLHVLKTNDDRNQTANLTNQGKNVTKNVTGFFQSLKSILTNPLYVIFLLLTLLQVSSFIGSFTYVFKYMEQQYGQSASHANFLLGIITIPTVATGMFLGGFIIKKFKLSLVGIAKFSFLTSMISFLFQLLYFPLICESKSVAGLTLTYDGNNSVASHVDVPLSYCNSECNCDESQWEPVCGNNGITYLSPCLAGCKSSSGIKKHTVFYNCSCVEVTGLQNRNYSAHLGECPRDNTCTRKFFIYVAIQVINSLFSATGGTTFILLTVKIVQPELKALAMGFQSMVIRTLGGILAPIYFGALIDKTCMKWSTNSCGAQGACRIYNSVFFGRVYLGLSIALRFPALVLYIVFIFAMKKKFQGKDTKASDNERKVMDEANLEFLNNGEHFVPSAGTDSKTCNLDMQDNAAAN
Experimental: 293FT cells were purchased from Thermo Fisher Scientific, Inc.. The cells were grown in Dulbecco's modified Eagle medium (supplemented with 4.5 g/L glucose and 2 mM L‐glutamine) at 37°C, 5% CO2, and 95% humidity. The cells were passaged 3 times per week by harvesting cells using trypsin and plating at a density of 1.0 × 10^4 cells/cm^2 in a 10 cm cell culture plate for maintenance culture. The 293FT cells were detached using trypsin and re‐seeded at a density of 2.5 × 10^4 cells/cm^2 in BioCoat™ Collagen I 6‐well plates (Corning Inc.) for transfection and then treated with 1.2 μg of plasmid vector and 3.2 μl of Lipofectamine™ 2000 Transfection Reagent (Thermo Fisher Scientific, Inc.) according to the manufacturer's instructions. After a 3‐h treatment, the transfection medium was replaced with a fresh cell culture medium and incubated at 37°C with 95% humidity and 5% CO2 until ready for the assay.
Transport experiments were conducted approximately 24 h post‐transfection. […] From the lysate, 1.0 ml was transferred to a vial containing 10 ml of Emulsifier Scintillator Plus to measure the radioactivity in the LSC. The protein concentration of the cell lysate was also measured using a Pierce™ BCA Protein Assay Kit (Thermo Fisher Scientific, Inc.), which was used to normalize, according to the cell number, the radioactivity in the cell lysate extract. […]

mouse Oatp1a4 = target: T2, mouse Oatp1a4 (Mus musculus, UniProt Q9EP96); assay: in vitro; conditions: 293FT cells transiently transfected with mouse Oatp1a4, probe radiolabeled S‐3100‐CA
T2 sequence (Q9EP96 1-670): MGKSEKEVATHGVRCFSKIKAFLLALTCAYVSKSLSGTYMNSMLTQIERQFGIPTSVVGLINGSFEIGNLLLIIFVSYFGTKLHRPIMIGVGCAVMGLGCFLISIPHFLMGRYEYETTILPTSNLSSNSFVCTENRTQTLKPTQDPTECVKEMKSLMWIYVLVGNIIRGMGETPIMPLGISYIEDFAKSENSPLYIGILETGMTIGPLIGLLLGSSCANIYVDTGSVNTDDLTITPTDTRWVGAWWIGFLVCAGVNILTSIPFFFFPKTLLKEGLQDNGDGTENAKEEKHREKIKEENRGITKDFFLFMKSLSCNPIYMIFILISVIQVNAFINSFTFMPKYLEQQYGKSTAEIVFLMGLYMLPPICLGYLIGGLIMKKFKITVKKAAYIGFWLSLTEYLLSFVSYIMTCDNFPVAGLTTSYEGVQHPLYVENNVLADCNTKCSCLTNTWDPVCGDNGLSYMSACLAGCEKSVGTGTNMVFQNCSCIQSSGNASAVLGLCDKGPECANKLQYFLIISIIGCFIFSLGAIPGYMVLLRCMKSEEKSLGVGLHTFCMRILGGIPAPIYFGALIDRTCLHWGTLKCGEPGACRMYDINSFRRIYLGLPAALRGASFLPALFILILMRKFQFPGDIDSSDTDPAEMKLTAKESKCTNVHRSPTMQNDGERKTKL
Experimental: Transport experiments were conducted approximately 24 h post‐transfection. The experiments were initiated by aspirating culture medium and addition of pre‐warmed radiolabeled substrate solution (final 1.0% of acetonitrile or 0.9% of ethanol in phosphate‐buffered saline (PBS[−])) to each well. After a 10‐min incubation, cells were washed twice with 1 ml of ice‐cold PBS(−) and lysed with 700 μl of 1.0 M NaOH for 3 h or more at room temperature. The lysate was transferred to a 1.5‐ml tube, and neutralized with 350 μl of 2.0 M HCl and 350 μl of 2.0% sodium dodecyl sulfate (SDS) solution. From the lysate, 1.0 ml was transferred to a vial containing 10 ml of Emulsifier Scintillator Plus to measure the radioactivity in the LSC. The protein concentration of the cell lysate was also measured using a Pierce™ BCA Protein Assay Kit (Thermo Fisher Scientific, Inc.), which was used to normalize, according to the cell number, the radioactivity in the cell lysate extract. The protein assay was performed in duplicate. Each sample type was assayed in triplicate wells, and each run was performed twice. […] Each sample type was assayed in triplicate wells.

mitochondrial PPO = test system: mitochondrial PPO; set-up: method as in PMID 34908893; conditions: cited from earlier work

## CCOC(=O)COc1ncccc1Oc1cc(-n2c(=O)cc(C(F)(F)F)n(C)c2=O)c(F)cc1Cl [Epyrifenacil, ethyl[(3‐{2‐chloro‐4‐fluoro‐5‐[3‐methyl‐2,6‐dioxo‐4‐(trifluoromethyl)‐3,6‐dihydropyrimidin‐1(2H)‐yl]phenoxy}pyridin‐2‐yl)oxy]acetate]
[1]
  Hepatocyte injury: produced hepatocyte injury

## CO[C@H]1/C=C/O[C@@]2(C)Oc3c(C)c(O)c4c(O)c(c(/C=N/N5CCN(C)CC5)c(O)c4c3C2=O)NC(=O)/C(C)=C\C=C\[C@H](C)[C@H](O)[C@@H](C)[C@@H](O)[C@@H](C)[C@H](OC(C)=O)[C@@H]1C [RIF, Rifampicin]
Human OATP1B3
  Uptake of S‐3100‐CA, % of that by vehicle‐treated cells: less than 40%
Mouse Oatp1a4
  inhibition at 10 min, 10 µM: > 50%

## Cn1c(C(F)(F)F)cc(=O)n(-c2cc(Oc3cccnc3OCC(=O)O)c(Cl)cc2F)c1=O [S‐3100‐CA]
Mitochondrial PPO; PPO inhibition study
  PPO inhibitory activity (in words): comparable inhibitory activity to that of the parent epyrifenacil
Mitochondrial PPO; higher in mice than in humans
  Inhibitory activity against mitochondrial PPO, mice relative to humans: 10 times
